Test results from patent publication US20240180878A1, “AMIDE DERIVATIVES OF BUTYRIC ACID FOR USE IN THE TREATMENT OR PREVENTION OF SARS-COV-2 INFECTION” (RHEA INNOVATIONS S.R.L., priority 2021, published 2024).

Key:
[1] = tested on: TMPRSS2; assay: Human enterocytes cell line (Caco-2), qRT-PCR gene expression; format: cell-based; conditions: Caco-2 cells, 2 mM FBA (maximal effective dose), 24 h of incubation
[2] = tested on: MCP-1; assay: Human respiratory epithelial cell line Calu3, qRT-PCR gene expression; format: cell-based; conditions: Calu3 cells, 2 mM FBA, 24 h of incubation
[3] = tested on: ACE2; assay: Small intestinal biopsy organ culture, qRT-PCR gene expression; format: cell-based; conditions: human small intestine biopsies, 2 mM FBA for 24 h vs medium alone
[4] = tested on: TMPRSS2; assay: Human respiratory epithelial cell line Calu3, qRT-PCR gene expression; format: cell-based; conditions: Calu3 cells, 2 mM FBA, 24 h of incubation
[5] = tested on: IL-15; assay: Human enterocytes cell line (Caco-2), qRT-PCR gene expression; format: cell-based; conditions: Caco-2 cells, 2 mM FBA (maximal effective dose), 24 h of incubation
[6] = tested on: SARS-CoV-2 wild-type strain; format: cell-based; conditions: Caco-2 pretreated with 2 mM FBA for 24 h, then 1 MOI wild-type SARS-CoV-2 for 72 h
[7] = tested on: ACE2; assay: Human respiratory epithelial cell line Calu3, qRT-PCR gene expression; format: cell-based; conditions: Calu3 cells, 2 mM FBA, 24 h of incubation
[8] = tested on: TNF-α; assay: as above; format: cell-based; conditions: Calu3 cells, 2 mM FBA, 24 h of incubation
[9] = tested on: IL-15; assay: as above; format: cell-based; conditions: Calu3 cells, 2 mM FBA, 24 h of incubation
[10] = tested on: tumor necrosis factor-alpha (TNF-α); assay: Small intestinal biopsy organ culture, qRT-PCR gene expression; format: cell-based; conditions: human small intestine biopsies, 2 mM FBA vs medium alone
[11] = tested on: TMPRSS2; assay: as above; format: cell-based; conditions: human small intestine biopsies, 2 mM FBA for 24 h vs medium alone
[12] = tested on: monocyte chemoattractant protein-1 (MCP-1); assay: as above; format: cell-based; conditions: human small intestine biopsies, 2 mM FBA vs medium alone
[13] = tested on: ACE2; assay: SARS-CoV-2 infection model in Caco-2 cells, expression (qRT-PCR, Western blotting); format: cell-based, human; conditions: Caco-2 pretreated with 2 mM FBA for 24 h, then 1 MOI wild-type SARS-CoV-2 for 72 h
Experimental: (§1) The SARS-CoV-2 infection was performed on Caco-2, at 15 days post-confluence, using SARS-CoV-2 wild-type strain. Before the infection, cells were incubated with 2 mM of FBA for 24 h at 37° C. 1 MOI of SARS-CoV-2 was added to the Caco-2 monolayer for 72 h. Then, SARS-CoV-2 inoculum was removed, the cells were washed three times with PBS 1× and were harvested for RNA, proteins extraction and for fluorescence microscopy analysis.
RNA samples were extracted, processed and analyzed as described above. Western blotting was performed on the total protein extracts of infected Caco-2 cells pretreated with FBA. For the total protein fraction, the harvested cells were washed in cold phosphate-buffered saline (PBS) and lysed in protein lysis buffer (RIPA). Protein concentrations in cell extracts were determined using the Bradford assay (BioRad, Milan, Italy). Thirty microgram total lysates were loaded onto 10% SDS-PAGE and then transferred to nitrocellulose membranes (ImmobilonR-Transfer Membrane, Tullagreen, Carrigtwohill, Co). […]
Western blotting was performed on the total protein extracts of infected Caco-2 cells pretreated with FBA. […] Protein concentrations in cell extracts were determined using the Bradford assay (BioRad, Milan, Italy). […]

[14] = tested on: VEGFβ; assay: SARS-CoV-2 infection model in Caco-2 cells, gene expression; format: cell-based, human; conditions: Caco-2 pretreated with 2 mM FBA for 24 h, then 1 MOI wild-type SARS-CoV-2 for 72 h
Experimental: as §1
(§2) RNA samples were extracted, processed and analyzed as described above. Western blotting was performed on the total protein extracts of infected Caco-2 cells pretreated with FBA. For the total protein fraction, the harvested cells were washed in cold phosphate-buffered saline (PBS) and lysed in protein lysis buffer (RIPA). Protein concentrations in cell extracts were determined using the Bradford assay (BioRad, Milan, Italy). Thirty microgram total lysates were loaded onto 10% SDS-PAGE and then transferred to nitrocellulose membranes (ImmobilonR-Transfer Membrane, Tullagreen, Carrigtwohill, Co). The membranes were blocked with 5% non-fat milk in PBS, pH 7.6, 0.2% Tween 20 (PanReac AppliChem) and probed overnight at 4° C. with the specific primary antibodies for ACE2 (1:2000; Abcam). After washing in PBS, pH 7.6, 0.2% Tween 20, the membranes were incubated with a horseradish peroxidase-conjugated goat anti-rabbit antibody (1:2000; Abcam). The immunoblots were visualized using ECL detection kits, with enhanced chemiluminescence (Pierce, Rockford, IL, USA). A mouse β-actin antibody (1:5000; Elabscience) was used as the control for equal loading of total lysates.

[15] = tested on: TMPRSS2; assay: as above; format: cell-based, human; conditions: Caco-2 pretreated with 2 mM FBA for 24 h, then 1 MOI wild-type SARS-CoV-2 for 72 h
Experimental: as §1, §2

[16] = tested on: CXCL1; assay: as above; format: cell-based, human; conditions: Caco-2 pretreated with 2 mM FBA for 24 h, then 1 MOI wild-type SARS-CoV-2 for 72 h
Experimental: as §1, §2

[17] = tested on: TNF-α; assay: as above; format: cell-based, human; conditions: Caco-2 pretreated with 2 mM FBA for 24 h, then 1 MOI wild-type SARS-CoV-2 for 72 h
Experimental: as §1, §2

[18] = tested on: MCP-1; assay: as above; format: cell-based, human; conditions: Caco-2 pretreated with 2 mM FBA for 24 h, then 1 MOI wild-type SARS-CoV-2 for 72 h
Experimental: as §1, §2

[19] = tested on: ACE2; assay: Human enterocytes cell line (Caco-2), qRT-PCR gene expression; format: cell-based; conditions: Caco-2 cells, 2 mM FBA (maximal effective dose), 24 h of incubation
[20] = tested on: MCP-1; assay: as above; format: cell-based; conditions: Caco-2 cells, 2 mM FBA (maximal effective dose), 24 h of incubation
[21] = tested on: IL-1β; assay: SARS-CoV-2 infection model in Caco-2 cells, gene expression; format: cell-based, human; conditions: Caco-2 pretreated with 2 mM FBA for 24 h, then 1 MOI wild-type SARS-CoV-2 for 72 h
[22] = tested on: interleukin (IL)-15; assay: Small intestinal biopsy organ culture, qRT-PCR gene expression; format: cell-based; conditions: human small intestine biopsies, 2 mM FBA vs medium alone
[23] = tested on: TNF-α; assay: Human enterocytes cell line (Caco-2), qRT-PCR gene expression; format: cell-based; conditions: Caco-2 cells, 2 mM FBA (maximal effective dose), 24 h of incubation

CCCC(=O)NC(Cc1ccccc1)C(N)=O (centres unmarked) [FBA, N-(1-carbamoyl-2-phenyl-ethyl) butyramide]
TMPRSS2 expression [1]: significantly reduce
expression of MCP-1 [2]: downregulate
expression of ACE2 [3]: significantly decreased
expression of TMPRSS2 [4]: downregulate
IL-15 expression [5]: significantly reduce
virus entry [6]: inhibit
expression of ACE2 [7]: downregulate
expression of TNF-α [8]: downregulate
expression of IL-15 [9]: downregulate
expression of TNF-α [10]: significant reduction
expression of TMPRSS2 [11]: significantly decreased
expression of MCP-1 [12]: significant reduction
ACE2 expression [13]: inhibit
expression of VEGFβ [14]: inhibit
TMPRSS2 expression [15]: inhibit
expression of CXCL1 [16]: inhibit
expression of TNF-α [17]: inhibit
expression of MCP-1 [18]: inhibit
ACE2 expression [19]: significantly reduce
MCP-1 expression [20]: significantly reduce
expression of IL-1β [21]: inhibit
expression of interleukin (IL)-15 [22]: significant reduction
TNF-α expression [23]: significantly reduce
